Data as given in the supplement of paper PMC10307832.

Experiments:
Test in all cases: relative viability (nuclei count vs DMSO), 5 days (fraction); higher = more cells survive
[1] = compound: C#Cc1cccc(Nc2ncnc3cc(OC)c(OCCCCCCC(=O)NO)cc23)c1 [CUDC-101] + O=C(CCCCCCC(=O)Nc1ccccc1)NO [Vorinostat] (partner 1 µM)
Summary of the method: (§1)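 Lung cancer cell lines were pin-tool dosed in 1536-well plates on the day after seeding, with either a lone drug or a fixed anchor-drug dose plus five library-drug doses (not always all listed) in √10 steps. Nuclei were counted on 4× images after 5 days. Relative viability is the ratio of treated-well to vehicle-well nuclei counts, with each value a median of duplicate plates.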

[2] = compound: C#Cc1cccc(Nc2ncnc3cc(OC)c(OCCCCCCC(=O)NO)cc23)c1 [CUDC-101] + CS(=O)(=O)N1CCN(Cc2cc3nc(-c4cccc5[nH]ncc45)nc(N4CCOCC4)c3s2)CC1 [Pictilisib] (partner 1 µM)
Summary of the method: as §1

[3] = compound: C1=CC=C2C(=C1)N=C(S2)C(C#N)C3=NC(=NC=C3)NCCC4=CN=CC=C4 + Cc1nc(NC(=O)N2CCC[C@H]2C(N)=O)sc1-c1ccnc(C(C)(C)C(F)(F)F)c1 [Alpelisib] (partner 2 µM)
Summary of the method: as §1

[4] = compound: COc1cc2/c(=N/c3ccc(Br)cc3F)nc[nH]c2cc1OCC1CCN(C)CC1 [Vandetanib] + Cc1nc(NC(=O)N2CCC[C@H]2C(N)=O)sc1-c1ccnc(C(C)(C)C(F)(F)F)c1 [Alpelisib] (partner 2 µM)
Summary of the method: as §1

With NCI-H522 the relative viability ([1]; first compound 0.01 µM) was 0.758, the relative viability ([1]; first compound 0.03162 µM) was 0.769 and the relative viability ([1]; first compound 0.1 µM) was 1.09. The relative viability ([1]; first compound 0.3162 µM) was 0.921 and the relative viability ([1]; first compound 1 µM) was 0.779.
With RERF-LC-KJ the relative viability ([2]; first compound 0.01 µM) was 0.465, the relative viability ([2]; first compound 0.03162 µM) was 0.518 and the relative viability ([2]; first compound 0.1 µM) was 0.511. For the same cell line, the relative viability ([2]; first compound 0.3162 µM) was 0.485, the relative viability ([2]; first compound 1 µM) was 0.376 and the relative viability ([1]; first compound 0.01 µM) was 0.732. For the same cell line, the relative viability ([1]; first compound 0.03162 µM) was 0.783, the relative viability ([1]; first compound 0.1 µM) was 0.612 and the relative viability ([1]; first compound 0.3162 µM) was 0.659. The relative viability ([1]; first compound 1 µM) was 0.439, the relative viability ([3]; first compound 0.005 µM) was 0.915 and the relative viability ([3]; first compound 0.01581 µM) was 0.849. It also gave a relative viability ([3]; first compound 0.05 µM) of 0.759, a relative viability ([3]; first compound 0.1581 µM) of 0.899 and a relative viability ([3]; first compound 0.5 µM) of 0.82. The relative viability ([4]; first compound 0.02 µM) was 0.82, the relative viability ([4]; first compound 0.06325 µM) was 0.694 and the relative viability ([4]; first compound 0.2 µM) was 0.833. For the same cell line, the relative viability ([4]; first compound 0.6325 µM) was 0.774 and the relative viability ([4]; first compound 2 µM) was 0.678.
With A-427 the relative viability ([2]; first compound 0.01 µM) was 0.804, the relative viability ([2]; first compound 0.03162 µM) was 0.656 and the relative viability ([2]; first compound 0.1 µM) was 0.655. The relative viability ([2]; first compound 0.3162 µM) was 0.698, the relative viability ([2]; first compound 1 µM) was 0.614 and the relative viability ([1]; first compound 0.01 µM) was 0.862. It also gave a relative viability ([1]; first compound 0.03162 µM) of 0.81, a relative viability ([1]; first compound 0.1 µM) of 0.854 and a relative viability ([1]; first compound 0.3162 µM) of 0.817. For the same cell line, the relative viability ([1]; first compound 1 µM) was 0.433, the relative viability ([3]; first compound 0.005 µM) was 1.08 and the relative viability ([3]; first compound 0.01581 µM) was 1.01. The relative viability ([3]; first compound 0.05 µM) was 0.996, the relative viability ([3]; first compound 0.1581 µM) was 1.09 and the relative viability ([3]; first compound 0.5 µM) was 1.16. For the same cell line, the relative viability ([4]; first compound 0.02 µM) was 0.951, the relative viability ([4]; first compound 0.06325 µM) was 1.01 and the relative viability ([4]; first compound 0.2 µM) was 1.11. For the same cell line, the relative viability ([4]; first compound 0.6325 µM) was 1.06 and the relative viability ([4]; first compound 2 µM) was 1.1.
In the case of EKVX, the relative viability ([2]; first compound 0.01 µM) is reported as 0.452, the relative viability ([2]; first compound 0.03162 µM) is reported as 0.403 and the relative viability ([2]; first compound 0.1 µM) is reported as 0.412. It also gave a relative viability ([2]; first compound 0.3162 µM) of 0.355, a relative viability ([2]; first compound 1 µM) of 0.215 and a relative viability ([1]; first compound 0.01 µM) of 0.658. For the same cell line, the relative viability ([1]; first compound 0.03162 µM) was 0.658, the relative viability ([1]; first compound 0.1 µM) was 0.623 and the relative viability ([1]; first compound 0.3162 µM) was 0.617. For the same cell line, the relative viability ([1]; first compound 1 µM) was 0.363, the relative viability ([3]; first compound 0.005 µM) was 0.763 and the relative viability ([3]; first compound 0.01581 µM) was 0.981. For the same cell line, the relative viability ([3]; first compound 0.05 µM) was 0.902, the relative viability ([3]; first compound 0.1581 µM) was 0.844 and the relative viability ([3]; first compound 0.5 µM) was 0.69. The relative viability ([4]; first compound 0.02 µM) was 0.95, the relative viability ([4]; first compound 0.06325 µM) was 0.873 and the relative viability ([4]; first compound 0.2 µM) was 0.86. It also gave a relative viability ([4]; first compound 0.6325 µM) of 0.777 and a relative viability ([4]; first compound 2 µM) of 0.424.
NCI-H460 was tested, and the relative viability ([2]; first compound 0.01 µM) was 0.375, the relative viability ([2]; first compound 0.03162 µM) was 0.358 and the relative viability ([2]; first compound 0.1 µM) was 0.315. For the same cell line, the relative viability ([2]; first compound 0.3162 µM) was 0.453, the relative viability ([2]; first compound 1 µM) was 0.287 and the relative viability ([1]; first compound 0.01 µM) was 0.679. The relative viability ([1]; first compound 0.03162 µM) was 0.73, the relative viability ([1]; first compound 0.1 µM) was 0.695 and the relative viability ([1]; first compound 0.3162 µM) was 0.597. For the same cell line, the relative viability ([1]; first compound 1 µM) was 0.409, the relative viability ([3]; first compound 0.01581 µM) was 0.508 and the relative viability ([3]; first compound 0.05 µM) was 0.503. For the same cell line, the relative viability ([3]; first compound 0.1581 µM) was 0.579, the relative viability ([3]; first compound 0.5 µM) was 0.309 and the relative viability ([4]; first compound 0.02 µM) was 0.503. It also gave a relative viability ([4]; first compound 0.06325 µM) of 0.556, a relative viability ([4]; first compound 0.2 µM) of 0.0233 and a relative viability ([4]; first compound 0.6325 µM) of 0.434. The relative viability ([4]; first compound 2 µM) was 0.419.
HARA was tested, and the relative viability ([2]; first compound 0.01 µM) was 0.684, the relative viability ([2]; first compound 0.03162 µM) was 0.475 and the relative viability ([2]; first compound 0.1 µM) was 0.293. It also gave a relative viability ([2]; first compound 0.3162 µM) of 0.215, a relative viability ([2]; first compound 1 µM) of 0.157 and a relative viability ([1]; first compound 0.01 µM) of 0.505. For the same cell line, the relative viability ([1]; first compound 0.03162 µM) was 0.678, the relative viability ([1]; first compound 0.1 µM) was 0.577 and the relative viability ([1]; first compound 0.3162 µM) was 0.478. The relative viability ([1]; first compound 1 µM) was 0.22, the relative viability ([3]; first compound 0.005 µM) was 0.794 and the relative viability ([3]; first compound 0.01581 µM) was 0.794. The relative viability ([3]; first compound 0.05 µM) was 0.744, the relative viability ([3]; first compound 0.1581 µM) was 0.893 and the relative viability ([3]; first compound 0.5 µM) was 0.838. It also gave a relative viability ([4]; first compound 0.02 µM) of 0.812, a relative viability ([4]; first compound 0.06325 µM) of 0.76 and a relative viability ([4]; first compound 0.2 µM) of 0.861. It also gave a relative viability ([4]; first compound 0.6325 µM) of 0.821 and a relative viability ([4]; first compound 2 µM) of 0.537.
NCI-H1944 gave a relative viability ([2]; first compound 0.01 µM) of 0.319, a relative viability ([2]; first compound 0.03162 µM) of 0.311 and a relative viability ([2]; first compound 0.1 µM) of 0.32. The relative viability ([2]; first compound 0.3162 µM) was 0.324, the relative viability ([2]; first compound 1 µM) was 0.298 and the relative viability ([1]; first compound 0.01 µM) was 0.522. For the same cell line, the relative viability ([1]; first compound 0.03162 µM) was 0.58, the relative viability ([1]; first compound 0.1 µM) was 0.529 and the relative viability ([1]; first compound 0.3162 µM) was 0.533. It also gave a relative viability ([1]; first compound 1 µM) of 0.369, a relative viability ([3]; first compound 0.005 µM) of 0.799 and a relative viability ([3]; first compound 0.01581 µM) of 0.86. For the same cell line, the relative viability ([3]; first compound 0.05 µM) was 0.771, the relative viability ([3]; first compound 0.1581 µM) was 0.835 and the relative viability ([3]; first compound 0.5 µM) was 0.803. It also gave a relative viability ([4]; first compound 0.02 µM) of 0.781, a relative viability ([4]; first compound 0.06325 µM) of 0.81 and a relative viability ([4]; first compound 0.2 µM) of 0.807. It also gave a relative viability ([4]; first compound 0.6325 µM) of 0.757 and a relative viability ([4]; first compound 2 µM) of 0.744.
Work on BEN yielded a relative viability ([2]; first compound 0.01 µM) of 0.569, a relative viability ([2]; first compound 0.03162 µM) of 0.499 and a relative viability ([2]; first compound 0.1 µM) of 0.601. The relative viability ([2]; first compound 0.3162 µM) was 0.454, the relative viability ([2]; first compound 1 µM) was 0.304 and the relative viability ([1]; first compound 0.01 µM) was 0.656. It also gave a relative viability ([1]; first compound 0.03162 µM) of 0.557, a relative viability ([1]; first compound 0.1 µM) of 0.573 and a relative viability ([1]; first compound 0.3162 µM) of 0.538. For the same cell line, the relative viability ([1]; first compound 1 µM) was 0.386, the relative viability ([3]; first compound 0.005 µM) was 0.763 and the relative viability ([3]; first compound 0.01581 µM) was 1.1. It also gave a relative viability ([3]; first compound 0.05 µM) of 0.931, a relative viability ([3]; first compound 0.1581 µM) of 0.99 and a relative viability ([3]; first compound 0.5 µM) of 0.932. It also gave a relative viability ([4]; first compound 0.02 µM) of 0.976, a relative viability ([4]; first compound 0.06325 µM) of 0.897 and a relative viability ([4]; first compound 0.2 µM) of 0.928. The relative viability ([4]; first compound 0.6325 µM) was 1.04 and the relative viability ([4]; first compound 2 µM) was 0.867.
For PC-14, the relative viability ([2]; first compound 0.01 µM) was 0.936, the relative viability ([2]; first compound 0.03162 µM) was 0.562 and the relative viability ([2]; first compound 0.1 µM) was 0.215. It also gave a relative viability ([2]; first compound 0.3162 µM) of 0.173, a relative viability ([2]; first compound 1 µM) of 0.0519 and a relative viability ([1]; first compound 0.01 µM) of 0.806. It also gave a relative viability ([1]; first compound 0.03162 µM) of 0.572, a relative viability ([1]; first compound 0.1 µM) of 0.137 and a relative viability ([1]; first compound 0.3162 µM) of 0.148. It also gave a relative viability ([1]; first compound 1 µM) of 0.0543, a relative viability ([3]; first compound 0.005 µM) of 0.708 and a relative viability ([3]; first compound 0.01581 µM) of 1.08. It also gave a relative viability ([3]; first compound 0.05 µM) of 1, a relative viability ([3]; first compound 0.1581 µM) of 1.17 and a relative viability ([3]; first compound 0.5 µM) of 0.742. The relative viability ([4]; first compound 0.02 µM) was 0.922, the relative viability ([4]; first compound 0.06325 µM) was 0.846 and the relative viability ([4]; first compound 0.2 µM) was 0.911. It also gave a relative viability ([4]; first compound 0.6325 µM) of 0.447 and a relative viability ([4]; first compound 2 µM) of 0.182.
